Columns and labels:
[1] = Plasma concentrations of flutamide active metabolite in rats after single oral doses of various esters (0-4 hours), gas-liquid chromatography; type: in vivo, male Sprague Dawley rats; conditions: rat; for Relative Rank (0-4 hour area): oral, 0-4 hour area relative to flutamide = 1.00; for Area under the 0-4 hour plasma level curve of flutamide active metabolite (0-4 Hours) / Plasma concentration of flutamide active metabolite, 2 Hours / Plasma concentration of flutamide active metabolite, 4 Hours: single oral dose, normalized to a 5 mg/kg dose of flutamide active metabolite; for Plasma concentration of flutamide active metabolite, 2 Hours / Plasma concentration of flutamide active metabolite, 4 Hours: average of 2 animals
[2] = Plasma concentrations of flutamide active metabolite for up to 16 hours after administration of esters or flutamide; type: in vivo, rats; conditions: rat; for 0-16 hr (area under the plasma level curve of flutamide active metabolite) / Plasma concentration of flutamide active metabolite, 0.5 hr / Plasma concentration of flutamide active metabolite, 1 hr / Plasma concentration of flutamide active metabolite, 2 hr / Plasma concentration of flutamide active metabolite, 4 hr / Plasma concentration of flutamide active metabolite, 8 hr / Plasma concentration of flutamide active metabolite, 16 hr: normalized to a 5 mg/kg dose of flutamide active metabolite; for Plasma concentration of flutamide active metabolite, 0.5 hr / Plasma concentration of flutamide active metabolite, 1 hr / Plasma concentration of flutamide active metabolite, 2 hr / Plasma concentration of flutamide active metabolite, 4 hr / Plasma concentration of flutamide active metabolite, 8 hr / Plasma concentration of flutamide active metabolite, 16 hr: average of 3 animals; for Relative Rank (0-16 hr): 0-16 hr area relative to flutamide = 1.00
Procedure: Plasma concentrations of the flutamide active metabolite were determined by gas-liquid chromatography in 300-350 gram male Sprague Dawley rats following single oral 5 mg/kg doses of the compounds listed. […]

Molecule | Relative Rank (0-4 hour area) [1] | Area under the 0-4 hour plasma level curve of flutamide active metabolite (0-4 Hours) [1] | Plasma concentration of flutamide active metabolite, 2 Hours [1] | Plasma concentration of flutamide active metabolite, 4 Hours [1] | 0-16 hr (area under the plasma level curve of flutamide active metabolite) [2] | Plasma concentration of flutamide active metabolite, 0.5 hr [2] | Plasma concentration of flutamide active metabolite, 1 hr [2] | Plasma concentration of flutamide active metabolite, 2 hr [2] | Plasma concentration of flutamide active metabolite, 4 hr [2] | Plasma concentration of flutamide active metabolite, 8 hr [2] | Plasma concentration of flutamide active metabolite, 16 hr [2] | Relative Rank (0-16 hr) [2]
CNCC(=O)OC(C)(C)C(=O)Nc1ccc([N+](=O)[O-])c(C(F)(F)F)c1 [sar] | 1.52 | 3650 ng·h/mL | 1345 ng/mL | 958 ng/mL | – | – | – | – | – | – | – | –
CN(CC(=O)OC(C)(C)C(=O)Nc1ccc([N+](=O)[O-])c(C(F)(F)F)c1)C(=O)CNC(=O)[C@@H](N)CCCCN [lys--gly--sar, L-lysyl-glycyl-N-methylglycine, [1-methyl-[[4-nitro-3-(trifluoromethyl)phenyl]aminocarbonyl]ethyl]ester] | 1.44 | 3450 ng·h/mL | 1103 ng/mL | 1248 ng/mL | – | – | – | – | – | – | – | –
CC(C)C(=O)Nc1ccc([N+](=O)[O-])c(C(F)(F)F)c1 [H (flutamide), 2-methyl-N-[4-nitro-3-(trifluoromethyl)phenyl]propanamide, reference compound] | 1.00 | 2400 ng·h/mL | 715 ng/mL | 974 ng/mL | 8270 ng·h/mL | 210 ng/mL | 322 ng/mL | 614 ng/mL | 722 ng/mL | 649 ng/mL | 236 ng/mL | 1.00
C[C@H](N)C(=O)NCC(=O)N(C)CC(=O)OC(C)(C)C(=O)Nc1ccc([N+](=O)[O-])c(C(F)(F)F)c1 [ala--gly--sar, L-alanyl-glycyl-N-methylglycine, [1-methyl-[[4-nitro-3-(trifluoromethyl)phenyl]aminocarbonyl]ethyl]ester] | 2.09 | 5020 ng·h/mL | 1952 ng/mL | 1115 ng/mL | 17200 ng·h/mL | 1079 ng/mL | 2029 ng/mL | 1365 ng/mL | 1803 ng/mL | 1005 ng/mL | 423 ng/mL | 2.08
L-Proline-[1-methyl-[[4-nitro-3-trifluoromethyl)phenyl]aminocarbonyl]ethyl ]ester, hydrochloride | 1.46 | 3510 ng·h/mL | 1059 ng/mL | 1393 ng/mL | – | – | – | – | – | – | – | –
CC(C)(OC(=O)[C@@H]1CCCN1C(=O)CNC(=O)[C@@H](N)CCCCN)C(=O)Nc1ccc([N+](=O)[O-])c(C(F)(F)F)c1.Cl.Cl [lys--gly--pro, L-lysyl-glycyl-L-proline-[1-methyl-[[4-nitro-3-(trifluoromethyl)phenyl]aminocarbonyl]ethyl]ester, dihydrochloride] | 2.66 | 6400 ng·h/mL | 2277 ng/mL | 1847 ng/mL | 15600 ng·h/mL | 1392 ng/mL | 1907 ng/mL | 1751 ng/mL | 1170 ng/mL | 1054 ng/mL | 256 ng/mL | 1.89

From patent US4921941A, “Orally active antiandrogens” (Schering Corporation, priority 1987, dated 1990)
